Source: patent US20260184693A1, “INHIBITORS OF SOLUTE CARRIER FAMILY 6A MEMBER 19 (SLC6A19) AND METHODS OF USE THEREOF” (Maze Therapeutics, Inc., priority 2022, published 2026)

Experiments:
human SLC6A19 [1] = molecular target: T1, human SLC6A19 (Homo sapiens, UniProt Q695T7); assay: Example B-1: L-[3H]leucine uptake, liquid scintillation, in CHO cells with doxycycline-inducible expression of human SLC6A19 and TMEM27; assay type: cell-based; conditions: read-out: SLC6A19_Radioligand Uptake Assay IC50
T1 construct: expressed in transfected cells
T1 sequence (Q695T7 1-634): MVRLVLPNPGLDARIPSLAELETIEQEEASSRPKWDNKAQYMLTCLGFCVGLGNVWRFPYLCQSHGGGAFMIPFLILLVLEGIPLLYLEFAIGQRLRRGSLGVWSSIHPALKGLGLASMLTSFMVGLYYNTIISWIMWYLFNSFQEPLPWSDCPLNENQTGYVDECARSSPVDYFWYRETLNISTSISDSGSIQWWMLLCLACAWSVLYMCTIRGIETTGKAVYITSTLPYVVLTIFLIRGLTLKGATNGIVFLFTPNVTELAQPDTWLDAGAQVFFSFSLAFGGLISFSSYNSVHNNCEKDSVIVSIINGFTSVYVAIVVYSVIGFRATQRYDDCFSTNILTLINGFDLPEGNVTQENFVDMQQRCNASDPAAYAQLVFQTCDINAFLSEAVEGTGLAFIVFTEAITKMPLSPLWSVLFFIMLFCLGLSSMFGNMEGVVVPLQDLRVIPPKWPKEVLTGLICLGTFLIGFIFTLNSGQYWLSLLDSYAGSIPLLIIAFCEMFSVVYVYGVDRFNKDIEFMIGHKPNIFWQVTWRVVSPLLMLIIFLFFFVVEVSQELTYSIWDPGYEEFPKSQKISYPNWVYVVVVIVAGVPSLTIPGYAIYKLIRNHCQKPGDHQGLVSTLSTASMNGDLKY
T1 sequence (Q9HBJ8 15-222 partner): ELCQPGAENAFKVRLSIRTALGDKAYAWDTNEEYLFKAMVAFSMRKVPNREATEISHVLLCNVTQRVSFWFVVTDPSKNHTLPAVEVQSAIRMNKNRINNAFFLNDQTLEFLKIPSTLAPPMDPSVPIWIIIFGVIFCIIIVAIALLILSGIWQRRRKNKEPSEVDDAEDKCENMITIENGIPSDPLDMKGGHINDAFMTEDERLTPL
Method in brief: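 CHO cells induced 18 h with 1 µg/mL doxycycline (uninduced wells as expression control), washed in HBSS, compound in 8-point 3-fold series (0.5% DMSO), then 1.6 mM final [3H]:cold leucine (1:15000) uptake for 20 min at 37 °C. Scintillation counting; activity normalized to positive control (0%) and DMSO (100%).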

human SLC6A19 [2] = molecular target: T1, human SLC6A19; assay: Example B2: 13C6,15N-isoleucine uptake, RapidFire mass spectrometry, in CHO cells with doxycycline-inducible expression of human SLC6A19 and TMEM27; assay type: cell-based; conditions: read-out: SLC6A19_RapidFire Uptake Assay IC50
Method in brief: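 Labelled isoleucine (13C6,15N; 2 mM added) was given 20 min at 37 °C, following a 20-min compound pre-treatment (10-point 2-fold series, duplicate). Cells were doxycycline-induced CHO co-expressing human SLC6A19 and TMEM27. Intracellular label was quantified by RapidFire-MS peak areas against a 13C-leucine standard.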

Row | IC50 (human SLC6A19 [1]) [nM] | IC50 (human SLC6A19 [2]) [nM] | Structure (SMILES)
1 | 794 | 953 | CC(=O)N1CCC[C@@H](N(C)C(=O)NCc2cc3cc(C4CC4)ccc3[nH]2)C1 [Compound 220, (R)-1-(1-acetylpiperidin-3-yl)-3-((5-cyclopropyl-1H-indol-2-yl)methyl)-1-methylurea]
2 | 2410 | 4610 | CC(=O)N1CCC[C@@H](N(C(=O)NCc2cc3cc(Cl)ccc3[nH]2)C(C)C)C1 [Compound 221, (R)-1-(1-acetylpiperidin-3-yl)-3-((5-chloro-1H-indol-2-yl)methyl)-1-isopropylurea]
3 | 193 | 63.3 | CC(=O)N1CCC[C@@H](N(C(=O)NCc2cc3cc(Cl)ccc3[nH]2)C2CC2)C1 [Compound 222, (R)-1-(1-acetylpiperidin-3-yl)-3-((5-chloro-1H-indol-2-yl)methyl)-1-cyclopropylurea]
4 | 230 | 45.3 | CCN(C(=O)NCc1cc2cc(Cl)ccc2[nH]1)[C@@H]1CCCN(C(=O)C2CCC2)C1 [Compound 232, (R)-3-((5-chloro-1H-indol-2-yl)methyl)-1-(1-(cyclobutanecarbonyl)piperidin-3-yl)-1-ethylurea]
5 | 15600 | 9120 | CC(=O)N1CCC[C@@H](N(C)C(=O)NCc2cc3[nH]cc(C)c3cc2C)C1 [Compound 233, (R)-1-(1-acetylpiperidin-3-yl)-3-((3,5-dimethyl-1H-indol-6-yl)methyl)-1-methylurea]
6 | 367 | 255 | Cc1conc1N1CCC[C@@H](N(C)C(=O)NCc2cc3cc(Cl)ccc3[nH]2)C1 [Compound 234, (R)-3-((5-chloro-1H-indol-2-yl)methyl)-1-methyl-1-(1-(4-methylisoxazol-3-yl)piperidin-3-yl)urea]
7 | 673 | 893 | CC(=O)N1CCC[C@@H](N(C)C(=O)NCc2cc3[nH]cc(C)c3cc2Cl)C1 [Compound 235, (R)-1-(1-acetylpiperidin-3-yl)-3-((5-chloro-3-methyl-1H-indol-6-yl)methyl)-1-methylurea]
8 | 975 | 805 | Cc1cc(C(=O)N2CCC[C@@H](N(C)C(=O)NCc3cc4cc(Cl)ccc4[nH]3)C2)nn1C [Compound 236, (R)-3-((5-chloro-1H-indol-2-yl)methyl)-1-(1-(1,5-dimethyl-1H-pyrazole-3-carbonyl)piperidin-3-yl)-1-methylurea]
9 | 434 | 1210 | CN(C(=O)NCc1cc2cc(Cl)ccc2[nH]1)[C@@H]1CCCN(C(=O)c2cccnc2)C1 [Compound 237, (R)-3-((5-chloro-1H-indol-2-yl)methyl)-1-methyl-1-(1-nicotinoylpiperidin-3-yl)urea]
10 | 283 | 836 | CN(C(=O)NCc1cc2cc(Cl)ccc2[nH]1)[C@@H]1CCCN(C(=O)c2cnoc2)C1 [Compound 238, (R)-3-((5-chloro-1H-indol-2-yl)methyl)-1-(1-(isoxazole-4-carbonyl)piperidin-3-yl)-1-methylurea]
11 | 209 | 287 | CN(C(=O)NCc1cc2cc(Cl)ccc2[nH]1)[C@@H]1CCCN(C(=O)c2cnco2)C1 [Compound 239, (R)-3-((5-chloro-1H-indol-2-yl)methyl)-1-methyl-1-(1-(oxazole-5-carbonyl)piperidin-3-yl)urea]
12 | 154 | 160 | CCn1ccc(C(=O)N2CCC[C@@H](N(C)C(=O)NCc3cc4cc(Cl)ccc4[nH]3)C2)n1 [Compound 240, (R)-3-((5-chloro-1H-indol-2-yl)methyl)-1-(1-(1-ethyl-1H-pyrazole-3-carbonyl)piperidin-3-yl)-1-methylurea]
13 | 387 | 626 | CN(C(=O)NCc1cc2cc(Cl)ccc2[nH]1)[C@@H]1CCCN(C(=O)c2ccccn2)C1 [Compound 241, (R)-3-((5-chloro-1H-indol-2-yl)methyl)-1-methyl-1-(1-picolinoylpiperidin-3-yl)urea]
14 | > 10000 | 7080 | CC(=O)N1CCC[C@@H](N(C)C(=O)NCCc2ccc(F)c(-c3cc4ccccc4[nH]3)c2)C1 [Compound 244, (R)-1-(1-acetylpiperidin-3-yl)-3-(4-fluoro-3-(1H-indol-2-yl)phenethyl)-1-methylurea]
15 | 459 | 151 | CC(=O)N1CCC[C@@H](N(C)C(=O)NCCc2cc(-c3cc4ccccc4[nH]3)c(Cl)cc2F)C1 [Compound 245, (R)-1-(1-acetylpiperidin-3-yl)-3-(4-chloro-2-fluoro-5-(1H-indol-2-yl)phenethyl)-1-methylurea]
